Experimental data reported in patent US4992432A, “3-phenyl-thiazepinones as calcium regulating agents” (Hoffmann-La Roche Inc., priority 1990, dated 1991).
Where a name gives a salt, the structure may show the parent alone.

System: isolated rat aortic strips
Assay: Contraction of Rat Aortic Strips (inhibition of calcium-induced contracture, calcium channel blocking activity)
Assay type: cell-based
Conditions: for inhibition at 0.3 µM: Rattus norvegicus, 3×10^-7 M compound, 15 minutes prior to and during calcium curve, 2 mM Ca++, 45 mM potassium, as compared to the control, read-out: % Inhibition (effect on the 2mM Ca++ contracture); for reduction in responsiveness to / contracture at 2 mM Ca++ (in words): 3×10^-7 M, 15 minute exposure
Experimental: The calcium channel blocking activity of compounds of formula I was determined by measuring the effect of compounds of formula I on isolated rat aortic strips. Contraction of Rat Aortic Strips Aortas were excised from rats, placed in Krebs-Henseleit solution, modified so as to be calcium free, with a depolarized level of potassium (45 mM), and 0.02 mM EDTA. The aorta was then helically cut into a strip. This strip was then divided into four equal segments which were hung in isolated tissue chambers, attached to the appropriate tranducers and subjected to 500 mg basal tension. After a period of stabilization under these conditions, calcium was introduced into the bath and the tissues contracted in a concentration dependent manner. When no calcium is available in the bathing media, and the potential dependent calcium channels are opened by the high potassium level, contractility is dependent on the level of calcium introduced into the bath. By adding increments of calcium into the bath, a reproducible concentration-dependent contracture can be obtained. […] The number for untreated controls was derived by measuring contracture for two runs where calcium alone was added. […] The inhibition in contractile response at 2mMCa++was measured as a per cent inhibition as compared to the control.

| Structure (SMILES) | inhibition at 0.3 µM | reduction in responsiveness to / contracture at 2 mM Ca++ (in words) |
| --- | --- | --- |
| COc1ccc([C@@H]2SC=C(c3ccccc3)N(CCN(C)C)C(=O)[C@H]2OC(C)=O)cc1 (racemic) [G, trans-rac.-6-(Acetyloxy)-6,7-dihydro-7-(4-methoxy-phenyl)-4-[2-(dimethylamino)ethyl]-3-phenyl-1,4-thiazepin-5(4H)-one hydrochloride] | -8.4% | – |
| COc1ccc([C@H]2SC=C(c3ccccc3)N(CCN(C)C)C(=O)[C@H]2O)cc1 (racemic) [D, cis-rac.-6,7-Dihydro-6-hydroxy-7-(4-methoxyphenyl)-4[2-(dimethylamino)ethyl]-3-phenyl-1,4-thiazepin-5(4H)-one hydrochloride] | -16.5% | – |
| COc1ccc([C@@H]2SC=C(c3ccccc3)N(CCN(C)C)C(=O)[C@@H]2O)cc1 [E] | -13% | – |
| COc1ccc([C@@H]2SC=C(c3ccccc3)N(CCN(C)C)C(=O)[C@H]2O)cc1 (racemic) [H, trans-rac.-6,7-Dihydro-6-hydroxy-7-(4-methoxyphenyl) -4-[2-(dimethylamino)ethyl]-3-phenyl-1,4-thiazepin-5 (4H)-one (E)-2-butenedioate] | -5.6% | – |
| COc1ccc([C@@H]2SC=C(c3ccccc3)N(CCN(C)C)C(=O)[C@@H]2OC(C)=O)cc1 [Compound A, (+)-cis-6-(Acetyloxy)-6,7-dihydro-7-(4-methoxyphenyl) 4-[2-(dimethylamino)ethyl]-3-phenyl-1,4-thiazepin-5-(4H)-one hydrochloride] | -63% | inhibited almost two thirds of the contracture |
| COc1ccc([C@H]2SC=C(c3ccccc3)N(CCN(C)C)C(=O)[C@H]2OC(C)=O)cc1 [F, (-)-cis-6-(Acetyloxy)-6,7-dihydro-7-(4-methoxyphenyl) -4-[2-(dimethylamino)ethyl]-3-phenyl-1,4-thiazepin-5 (4H)-one [S-(R,* R,*)]-2,3-dihydroxybutanedioic acid salt] | -9.1% | – |
| COc1ccc([C@@H]2SC=C(c3ccccc3)N(CCN(C)C)C(=O)[C@@H]2OC)cc1 (relative stereo) [C, cis-rac.6,7-Dihydro-6-methoxy-7-(4-methoxyphenyl)-4[2-(dimethylamino)ethyl-3-phenyl-1,4-thiazepin-5(4H)-one hydrochloride] | -22.1% | – |
| COc1ccc([C@@H]2Sc3ccccc3N(CCN(C)C)C(=O)[C@@H]2OC(C)=O)cc1 [Diltiazem, reference compound] | -77% | marked reduction in responsiveness |
| COc1ccc([C@@H]2SC=C(c3ccccc3)N(CCN(C)C)C(=O)[C@@H]2OC(C)=O)cc1 (relative stereo) [Compound B, cis-rac.6-(Acetyloxy)-6,7-dihydro-7-(4-methoxyphenyl) -4-[2-(dimethylamino)ethyl]-3-phenyl-1,4-thiazepin-5(4H)-one hydrochloride] | -26.8% | – |
